Source: patent US11465974B2, “Crystalline polymorphs of Pracinostat and Pracinostat salts” (ASSIA CHEMICAL INDUSTRIES LTD., priority 2017, dated 2022)
Structures can show the parent of a compound that is named as a salt.

Columns and labels:
Format in all cases: physicochemical
[1] = Physical pressure stability test; conditions: 3 ton pressure for 1 minute at room temperature
Protocol: Physical pressure stability test: The tested sample was exposed to 3 ton pressure for 1 minute at room temperature.

[2] = Polymorphic stability at relative humidity 0% to 100%; conditions: RH of from 0% to 100%, room temperature
Grinding stability test = conditions: ground by mortar and pestle for 1 minute at room temperature, without solvent or with one drop of ethanol, isopropyl alcohol or water
Protocol: Grinding stability test: The tested sample was grinded by moltal&pestle for 1 minute at room temperature either without a solvent or with one drop of solvent from the following solvents: Ethanol, Isopropyl alcohol and water.

Thermal stability test = conditions: heated to 100° C. for 30 minutes at open dish
Protocol: Thermal stability test: The tested sample was heated to temperature of 100° C. for 30 minutes at open dish.

[3] = Hygroscopicity (absorption of water, determined for example by TGA)
Description: As used herein the term non-hygroscopic in relation to crystalline forms of Pracinostat refers to less than 0.2% (w/w) absorption of water, by the crystalline form of Pracinostat, as determined for example by TGA. Water can be for example atmospheric water.

Row | stability under physical pressure [1] | period of polymorphic stability [2] | stability under grinding (Grinding stability test) | stability under thermal test (Thermal stability test) | absorption of water (hygroscopicity) [3] | SMILES
1 | stable | at least 7 days | stable | stable | less than 0.2 % (w/w) | CCCCc1nc2cc(/C=C/C(=O)NO)ccc2n1CCN(CC)CC [Form P3, (E)-3-[2-Butyl-1-[2-(diethylamino)ethyl]-1H-benzo[d]imidazol-5-yl]-N-hydroxy-acrylamide]
2 | stable | at least 7 days | stable | stable | less than 0.2 % (w/w) | CCCCc1nc2cc(/C=C/C(=O)NO)ccc2n1CCN(CC)CC [Form P7, (E)-3-[2-Butyl-1-[2-(diethylamino)ethyl]-1H-benzo[d]imidazol-5-yl]-N-hydroxy-acrylamide]
3 | stable | at least 7 days | stable | stable | less than 2 % (w/w) | CCCCc1nc2cc(/C=C/C(=O)NO)ccc2n1CCN(CC)CC [Pracinostat sulfate Form S1]
